In general, kcat refers to the number of substrate molecules converted per active site and unit of time at saturation. As usually defined, the Km is the concentration of substrate that gives half-maximal velocity. As usually defined, the kcat/Km is the second-order rate constant that governs catalysis at low substrate concentration.

2 compounds from US4777250A, “Chymotrypsin model” (Northwestern University, priority 1986, dated 1988) can be followed below.

Data set [1] can be described thus: Hydrolysis of esters by artificial chymotrypsin (Lineweaver-Burk). The conditions noted are these: substrate m-t-butylphenyl acetate. Format: biochemical. The source says:
The chymotrypsin model was examined for its catalytic activity in ester hydrolysis.
In FIG. 2 plot A represents the hydrolysis of p-nitrophenyl acetate by chymotrypsin and plot B represents the hydrolysis of m-t-butylphenyl acetate by the miniature organic model of chymotrypsin. [EA ]=1×10^-5 M; [EB ]=3×10^-5 M.
FIG. 3 depicts the relative stability of both β-benzyme/m-t-butylphenyl acetate and α-chymotrypsin/p-nitrophenyl acetate (O) at elevated temperatures. The real enzyme has 245 amino acids whose conformation can be changed by disrupting hydrogen bonds by elevated temperature. In contrast, the artificial chymotrypsin has no amino acids. Abbreviations are explained by the equation [formula] The stability was obtained by determining the catalytic rate constant at various temperatures at pH 8.0 for chymotrypsin, using 400 nm with a Varian 200 spectrophotometer. β-benzyme activity for the artificial enzyme was determned at its optimum pH 10.7 and 288 nm.

Data set [2] concerns CC(=O)Oc1ccc([N+](=O)[O-])cc1. In words: purified protein, by the assay type. The conditions noted are these: other: pH 8.0 (optimum pH), substrate p-nitrophenyl acetate, error limit ± 10%.

Turning to `CC(=O)Oc1cccc(C(C)(C)C)c1` [m-t-butylphenyl acetate], the kcat in data set [1] (pH 10.7 (optimum pH), error limit ± 5%) was determined as 0.028 s⁻¹. Further, in data set [1] (pH 10.7 (optimum pH), error limit ± 10%), the Km came to 133 µM. Also, the specificity constant (kcat/Km) in data set [1] (pH 10.7) stood at 210 M⁻¹ s⁻¹.
As for “chymotrypsin (real enzyme, α-chymotrypsin) (Bos taurus)”, in data set [2], the Km was 40 µM, the kcat came to 0.011 s⁻¹ and the kcat/Km is 275 M⁻¹ s⁻¹.
